Biological target: T1, hPD-L1 (Homo sapiens, UniProt Q9NZQ7)
T1 construct: gene CD274; ectodomain (residues 18–239)
Test: SPR (Biacore X100, CM5 chip with immobilized hPD-L1, steady-state fit)
Assay type: binding

T1 sequence (Q9NZQ7 18-239): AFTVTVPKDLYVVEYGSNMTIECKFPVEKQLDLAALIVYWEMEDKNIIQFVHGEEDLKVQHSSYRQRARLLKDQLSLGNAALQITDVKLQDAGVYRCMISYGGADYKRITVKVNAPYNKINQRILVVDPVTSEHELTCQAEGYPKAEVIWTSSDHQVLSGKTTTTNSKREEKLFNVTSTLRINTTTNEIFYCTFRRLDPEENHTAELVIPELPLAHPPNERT

Clc1ccc(COc2ccc(CNCc3ccncc3)cc2)cc1 [CBPA, N-{4-[(4-chlorobenzyl)oxy]benzyl}-N-(4-pyridinylmethyl)amine]
Kd: 48.1 µM

From article PMC9964281, “Identification of CBPA as a New Inhibitor of PD-1/PD-L1 Interaction” (International Journal of Molecular Sciences, 2023)
